# Test system: mutant Huntington (HTT) protein
# Test: HTT Mutant HTRF iPSC assay (mHTT protein lowering)
# Format: cell-based
# Conditions: human iPSC derived from a HTT patient with a poly-Q49 mutation
row,SMILES,IC50
1,"Fc1cc(-c2cccc3nonc23)cn2cc(C3CCNCC3)nc12 [Compound 48, 4-(8-fluoro-2-(piperidin-4-yl)imidazo[1,2-a]pyridin-6-yl)benzo[c][1,2,5]oxadiazole]",1000 to 9000 nM
2,"Cc1cn2nc(-c3cc(F)c4nc(C5CCNC(C)(C)C5)cn4c3)ccc2n1 (stereo not drawn) [Compound 62, 6-(2-(2,2-dimethylpiperidin-4-yl)-8-fluoroimidazo[1,2-a]pyridin-6-yl)-2-methylimidazo[1,2-b]pyridazine]",< 100 nM
3,"Cc1cn2nc(-c3cc(F)c4nc([C@H]5CC[C@@]6(CCNC6)CC5)nn4c3)cc(C)c2n1 [Compound 452, (5r,8r)-8-(6-(2,8-dimethylimidazo[1,2-b]pyridazin-6-yl)-8-fluoro-[1,2,4]triazolo[1,5-a]pyridin-2-yl)-2-azaspiro[4.5]decane]",100 to 1000 nM
4,"Cc1cn2nc(-c3cc(F)c4nn(C5CCN(CC6CC6)CC5)cc4c3)cc2c(C)n1 [Compound 372, 2-(2-(1-(cyclopropylmethyl)piperidin-4-yl)-7-fluoro-2H-indazol-5-yl)-4,6-dimethylpyrazolo[1,5-a]pyrazine]",< 100 nM
5,"Cc1csc2cc(-c3cc(F)c4nc(C5CCNCC5)cn4c3)cnc12 [Compound 35, 6-(8-fluoro-2-(piperidin-4-yl)imidazo[1,2-a]pyridin-6-yl)-3-methylthieno[3,2-b]pyridine]",1000 to 9000 nM
6,"Cc1cn2nc(-c3cc(F)c4nc([C@H]5[C@@H]6CN(CC(F)F)C[C@@H]65)cn4c3)cc(C)c2n1 [Compound 217, 6-(2-((1R,5S,6r)-3-(2,2-difluoroethyl)-3-azabicyclo[3.1.0]hexan-6-yl)-8-fluoroimidazo[1,2-a]pyridin-6-yl)-2,8-dimethylimidazo[1,2-b]pyridazine]",100 to 1000 nM
7,"Cc1cn2nc(-c3cc(F)c4nn(C5CC6(CCNC6)C5)nc4c3)cc(C)c2n1 (stereo not drawn) [Compound 398, 6-(2,8-dimethylimidazo[1,2-b]pyridazin-6-yl)-4-fluoro-2-(6-azaspiro[3.4]octan-2-yl)-2H-benzo[d][1,2,3]triazole]",< 100 nM
8,"Cn1cc2cc(-c3cc(F)c4nc(C5CNC5)cn4c3)cc(F)c2n1 [Compound 23, 5-(2-(azetidin-3-yl)-8-fluoroimidazo[1,2-a]pyridin-6-yl)-7-fluoro-2-methyl-2H-indazole]",1000 to 9000 nM
9,"CN1CCC(c2cn3cc(-c4ccc5nn(C)cc5c4)cc(F)c3n2)CC1 [Compound 28, 5-(8-fluoro-2-(1-methylpiperidin-4-yl)imidazo[1,2-a]pyridin-6-yl)-2-methyl-2H-indazole]",1000 to 9000 nM
10,Cc1cn2nc(-c3cc(F)c4nc(C5CCNCC5)cn4c3)cc(C)c2n1 [Compound 1],< 100 nM
11,"Cc1cn2nc(-c3cc(F)c4nn(C5CCN(C)CC5)nc4c3)cc(C(F)F)c2n1 [Compound 375, 6-[8-(difluoromethyl)-2-methyl-imidazo[1,2-b]pyridazin-6-yl]-4-fluoro-2-(1-methyl-4-piperidyl)benzotriazole]",100 to 1000 nM
12,"Cc1nc2c(C)cc(-c3cc(F)c4nn(C5CCN(C)CC5)cc4c3)nn2n1 [Compound 359, 6-(7-fluoro-2-(1-methylpiperidin-4-yl)-2H-indazol-5-yl)-2,8-dimethyl-[1,2,4]triazolo[1,5-b]pyridazine]",< 100 nM
13,"Cc1cn2nc(-c3cc(F)c4nc([C@H]5CCNC6(CC6)C5)cn4c3)cc(C)c2n1 (single isomer, unassigned) [Compound 180]",< 100 nM
14,"Cn1cc2cc(-c3cc(F)c4nc(CC5CCCNC5)cn4c3)cc(F)c2n1 (stereo not drawn) [Compound 14, 7-fluoro-5-(8-fluoro-2-(piperidin-3-ylmethyl)imidazo[1,2-a]pyridin-6-yl)-2-methyl-2H-indazole]",100 to 1000 nM
15,"Cc1cn2cc(-c3cc(Cl)c4oc(C5CCNCC5)nc4c3)cc(F)c2n1 [Compound 534, 7-chloro-5-(8-fluoro-2-methylimidazo[1,2-a]pyridin-6-yl)-2-(piperidin-4-yl)benzo[d]oxazole]",1000 to 9000 nM
16,"Cc1cn2nc(-c3cc(OC(F)F)c4nc(C5CCNCC5)cn4c3)cc(C)c2n1 [Compound 537, 6-[8-(difluoromethoxy)-2-(4-piperidyl)imidazo[1,2-a]pyridin-6-yl]-2,8-dimethyl-imidazo[1,2-b]pyridazine]",< 100 nM
17,"Cn1cc2cc(-c3cc(F)c4nc(C56CCC(N)(C5)C6)cn4c3)cc(F)c2n1 [Compound 72, 4-(8-fluoro-6-(7-fluoro-2-methyl-2H-indazol-5-yl)imidazo[1,2-a]pyridin-2-yl)bicyclo[2.1.1]hexan-1-amine]",1000 to 9000 nM
18,"Cc1cn2nc(-c3cc(F)c4nc(C5CC6(CCN(C)CC6)C5)oc4c3)cc(C)c2n1 [Compound 458, 6-(2,8-dimethylimidazo[1,2-b]pyridazin-6-yl)-4-fluoro-2-(7-methyl-7-azaspiro[3.5]nonan-2-yl)benzo[d]oxazole]",100 to 1000 nM
19,"Cc1cn2nc(-c3cc(F)c4nc(C5CCN(C(C)C)CC5)cn4c3)cc(C)c2n1 [Compound 47, 6-(8-fluoro-2-(1-isopropylpiperidin-4-yl)imidazo[1,2-a]pyridin-6-yl)-2,8-dimethylimidazo[1,2-b]pyridazine]",< 100 nM
20,"Cc1cn2nc(-c3cc(F)c4nc(N(C)C5CCNC(C)(C)C5)oc4c3)cc(C)c2n1 (single isomer, unassigned) [Compound 508]",100 to 1000 nM
21,"CCc1cc(-c2cc(F)c3nn(C4CCNCC4)nc3c2)nn2cc(C)nc12 [Compound 389, 6-(8-ethyl-2-methylimidazo[1,2-b]pyridazin-6-yl)-4-fluoro-2-(piperidin-4-yl)-2H-benzo[d][1,2,3]triazole]",100 to 1000 nM
22,"Cc1cc(-c2cc(F)c3nc([C@H]4[C@@H]5CN(C)C[C@@H]54)cn3c2)nn2cc(C(F)F)nc12 [Compound 228, 2-(difluoromethyl)-6-(8-fluoro-2-((1R,5S,6r)-3-methyl-3-azabicyclo[3.1.0]hexan-6-yl)imidazo[1,2-a]pyridin-6-yl)-8-methylimidazo[1,2-b]pyridazine]",100 to 1000 nM
23,"Cc1cn2nc(-c3cc(F)c4nc(NC(=O)C5CN(C6COC6)C5)cn4c3)cc(C)c2n1 [Compound 254, N-(6-(2,8-dimethylimidazo[1,2-b]pyridazin-6-yl)-8-fluoroimidazo[1,2-a]pyridin-2-yl)-1-(oxetan-3-yl)azetidine-3-carboxamide]",< 100 nM
24,"CCN1CCC(c2cn3cc(-c4cc(C)c5nc(C)cn5n4)cc(F)c3n2)CC1 [Compound 112, 6-(2-(1-ethylpiperidin-4-yl)-8-fluoroimidazo[1,2-a]pyridin-6-yl)-2,8-dimethylimidazo[1,2-b]pyridazine]",< 100 nM
25,"Cc1cn2nc(-c3cc(F)c4nc(CC5CNC5)nn4c3)cc(C)c2n1 [Compound 440, 2-(azetidin-3-ylmethyl)-6-(2,8-dimethylimidazo[1,2-b]pyridazin-6-yl)-8-fluoro-[1,2,4]triazolo[1,5-a]pyridine]",100 to 1000 nM
26,"Cc1cn2nc(-c3cc(F)c4[nH]c(C5CCC6(CC5)CNC6)nc4c3)cc(C)c2n1 [Compound 424, 6-(7-fluoro-2-(2-azaspiro[3.5]nonan-7-yl)-1H-benzo[d]imidazol-5-yl)-2,8-dimethylimidazo[1,2-b]pyridazine]",100 to 1000 nM
27,"Cc1cn2nc(-c3cc(F)c4nc(NC5CCN(C6CCC6)CC5)oc4c3)cc(C)c2n1 [Compound 478, N-(1-cyclobutylpiperidin-4-yl)-6-(2,8-dimethylimidazo[1,2-b]pyridazin-6-yl)-4-fluorobenzo[d]oxazol-2-amine]",< 100 nM
